Source: patent publication US20260007756A1, “COMPOUND AND USE THEREOF” (COHERENT BIOPHARMA (SUZHOU) LIMITED, priority 2022, published 2026)

How the values were obtained:
HepG2 = experiment: Expansion inhibition of tumor cells (Example 7, CCK-8); type: cell-based; settings: Homo sapiens, HepG2 (no detectable FOLR1 or PSMA expression), 72 h
Protocol: (§1) Samples were serially diluted with medium (serially 5-fold diluted from 10 μM) to 9 concentrations. […] Negative and blank controls were set.
(§2) A CCK-8 developing solution was added at 10 μL/well (10% of the liquid volume in the wells). The plates were incubated at 37° C. for a proper time (the OD value was controlled within the range of 1.0-2.5 as possible). The plate covers were removed, and the 96-well plates were loaded on a microplate reader (Molecular Devices SpectraMax iD5) to read the measurement at 450 nm.

NCI-H460 = experiment: as above; type: cell-based; settings: Homo sapiens, NCI-H460 (no detectable FOLR1 or PSMA expression), 72 h
Protocol: as §1, §2

[1] = tested on: human liver cancer HepG2 cell subcutaneous xenograft tumor; experiment: Pharmacodynamic assessment, HepG2 xenograft model; type: in vivo, BALB/c nude mouse; settings: 4 mg/kg iv biw×3, day 36 after grouping
Protocol: Objective: Pre-clinical assessment of the efficacy of CR202 series of compounds in BALB/c nude mouse model with human liver cancer HepG2 cell subcutaneous xenograft tumor with no FOLR1 or PSMA receptor expression.
Procedures: 0.1 mL (10×10^6 cells) of HepG2 cells was subcutaneously inoculated on the right back of each mouse, and the mice were randomized into a modeling control group and treatment groups after the mean tumor volume was approximately 100-150 mm^3. The treatment was started on the first day of grouping. Before the start of administration, the animals were weighed, and the tumor volume was measured with a vernier caliper. After the grafting of tumor cells, the routine monitoring included the effect on tumor growth and the effect of treatment on the normal behavior of the animals, specifically the activity, food and water intake, weight gain or loss, the eyes, the hair, and other abnormal conditions. After the administration was started, the body weight and tumor size of the mice were measured periodically. The calculation formula for tumor volume: Tumor volume V (mm^3)=1/2×(a×b^2) (where a denotes the long diameter and b notes the short diameter). The calculation formula for the tumor growth inhibition, TGI (%), is TGI %=(1−T/C)×100% (T and C are the mean tumor volume of the treatment group and control group, respectively, at a particular time point).

[2] = tested on: human breast cancer MDA-MB-231 cell subcutaneous xenograft; experiment: Pharmacodynamic assessment, MDA-MB-231 xenograft model; type: in vivo; settings: 4 mg/kg iv biw×3
Description: Objective: Pre-clinical pharmacodynamic study of test compounds CR20274, CR20282, and CR20285 in BALB/c nude mouse model with human breast cancer MDA-MB-231 cell subcutaneous xenograft.
Procedures: MDA-MB-231 tumor mass was grafted subcutaneously at the right axilla of the mice, and the mice were randomized after the mean tumor volume was 200 mm^3. After administration, the animals were monitored daily for health conditions and death, and the routine examinations included observation of the effect on tumor growth and the effect of the treatment on the daily performance of the animals, such as behavioral activities, food and water intake, weight changes (measured once every other day), appearance, or other abnormal conditions. Whether the tumor growth was inhibited or delayed or the tumor was cured was also observed. The tumor volume was measured periodically. The tumor volume was calculated using the following formula: V=1/2×(a×b^2), where a and b denote the long diameter and short diameter of the tumor, respectively. The calculation formula for the tumor growth inhibition, TGI (%), is TGI %=(1−T/C)×100% (T and C are the mean tumor volume of the treatment group and control group, respectively, at a particular time point).

[3] = tested on: human prostate cancer C4-2 cell subcutaneous xenograft tumor; experiment: Pharmacodynamic assessment, C4-2 xenograft model; type: in vivo, NCG mouse; settings: 4 mg/kg i.v biw×3, day 23 after grouping
Description: Objective: Pre-clinical assessment of the efficacy of compounds for treating NCG mouse model with C4-2 cell subcutaneous xenograft tumor (overexpressing PSMA).
(§3) Procedures: C4-2 cells were subcutaneously grafted at the right back of the mice, and the mice were randomized when the mean tumor volume reached 100-150 mm^3. After the administration, the routine monitoring included the effect on tumor growth and the effect of treatment on the normal behavior of the animals, specifically the activity, food and water intake, weight gain or loss, the eyes, the hair, and other abnormal conditions. Clinical symptoms observed during the study were recorded in the raw data. After the administration was started, the body weight and tumor size of the mice were measured periodically. The tumor volume was calculated using the following formula: V=1/2×(a×b^2), where a and b denote the long diameter and short diameter of the tumor, respectively.

[4] = tested on: HT-29 cell subcutaneous xenograft tumor; experiment: Pharmacodynamic assessment, HT-29 xenograft model; type: in vivo, BALB/c nude mouse
Description: Objective: Pre-clinical assessment of the efficacy of CR202 series of compounds for treating BALB/c nude mouse model with HT-29 cell subcutaneous xenograft tumor.
as §3, with “HT-29” for “C4-2”

[5] = Single-dose PK assessment, tumor concentration in HT-29 xenograft mice; type: in vivo, BALB/c nude male mouse; settings: 2 mg/kg CR20274 single tail vein injection
Protocol: Objective: Single-dose PK assessment of compounds CR20214 and CR20274 in BALB/c nude male mouse model with human colorectal cancer HT-29 cell subcutaneous xenograft.
Procedures: HT-29 cells were grafted subcutaneously on the right back of the mice (purchased from GemPharmatech Co., Ltd., weighing 20-25 g, male, aged 45-60 days), and the mice were randomized when the mean tumor volume reached about 300 mm^3. 6.25 mg/kg of CR20214 and 2 mg/kg of CR20274 were given to the HT-29 tumor-bearing mice in a single dose by tail vein injection. The tumors were taken at […], 0.25, 0.5, 1, 2, 4, 8, 24, 48 and 72 h post-dose, ground, and homogenized. The homogenate was extracted, and after centrifugation, the supernatants were injected into a triple quadrupole tandem mass spectrometer to determine the CR20274 content in the tumors.

[6] = as above; type: in vivo, BALB/c nude male mouse; settings: 2 mg/kg CR20274 single tail vein injection, 5 min
[7] = 2 mg/kg i.v BIW×3, day 25 after grouping
[8] = 4 mg/kg i.v BIW×3, day 25 after grouping

IC50 (HepG2): 107 nM
IC50 (NCI-H460): 314 nM
Concentration of CR20274 in tumors (C2) ([5]; 0.25 h): 0.206 nmol/g
Concentration of CR20274 in tumors (C2) ([5]; 0.5 h): 0.222 nmol/g
Concentration of CR20274 in tumors (C2) ([5]; 1 h): 0.191 nmol/g
Concentration of CR20274 in tumors (C2) ([5]; 2 h): 0.180 nmol/g
Concentration of CR20274 in tumors (C2) ([5]; 4 h): 0.164 nmol/g
Concentration of CR20274 in tumors (C2) ([5]; 8 h): 0.154 nmol/g
Concentration of CR20274 in tumors (C2) ([5]; 24 h): 0.104 nmol/g
Concentration of CR20274 in tumors (C2) ([5]; 48 h): 0.064 nmol/g
Concentration of CR20274 in tumors (C2) ([5]; 72 h): 0.044 nmol/g
Concentration of CR20274 in tumors (C2) [6]: 0.227 nmol/g
SMILES: CC[C@@H]1C(=O)N(C)c2cnc(Nc3ccc(-c4cn([C@H]5CC[C@@H](NCCOCCC#Cc6cccc7c6CN(C6CCC(=O)NC6=O)C7=O)CC5)nn4)cc3OC)nc2N1C1CCCC1 (stereo partly drawn) [CR20274]
Mean tumor volume [1]: 1329.84 mm^3
TGI [1]: 22.99%
Anti-tumor effect [2]: no anti-tumor effect
Mean tumor volume [3]: 2198.07 mm^3
TGI [3]: −25.70%
Mean tumor volume [4, 7]: 1575.84 mm^3
TGI [4, 7]: 24.23%
Mean tumor volume [4, 8]: 1316.64 mm^3
TGI [4, 8]: 36.69%
